“Also recorded” adds a separate entry of the source.
Key:
patients with ALS [1] = conditions: cited from earlier work; for beneficial effects in ALS: anecdotal or preliminary observations; for potency in improving the clinical symptoms or prolonging life: patients with ALS
patients with ALS [2] = assay: Double-blind trial: averaged compound muscle action potential (CMAP) amplitudes in ALS patients, ultra-high versus low dose i.m.; type: in vivo, human
Protocol: (§1) To develop a symptomatic treatment for amyotrophic lateral sclerosis, I have compared the effects of ultra-high dose and low dose (25 mg/day and 0.5 mg/day, i.m. for 14 days) of methylcobalamin on the averaged compound muscle action potential amplitudes, which serve as an index of muscle power, in a double-blind trial.
(§2) […] were recorded bilaterally from the abductor pollicis brevis, abductor digiti minimi and abductor hallucis muscles after stimulation of the median, ulnar and tibial nerves at the wrist or at the ankle. Amplitudes were measured from the baseline to the negative peak. In each patient, the average amplitude from the six muscles (averaged CMAPs) served as an index of the number of muscle fibers innervated by spinal motoneurons. The method employed was that of Kelly et al.[Muscle Nerve 10, 471-179 (1990)] and Kimura [in Electrodiagnosis in diseases of nerve and muscle: principles and practice, 2nd edition, F. A. Davis ed.(1989), pages 85-87], the disclosures of which are incorporated herein by reference.
(§3) A total of 24 ALS patients without respiratory failure entered the study after giving an informed consent for the protocol approved by the Institutional Review Board. Twelve of them (High Dose Group; age 45-66 years, 5 men) received the ultra-high dose (25 mg/day or 360-610 μg/kg/day, i.m.) methylcobalamin and the other 12 (Low Dose Group; age 41-66 years, 6 men) received the low dose (0.5 mg/day or […],i.m.) as a control. The two groups were matched for age, disease durations (19.6±4.1 versus 21.7±3.2 months) and initial averaged CHAP amplitudes (5.27±0.84 versus 4.48±0.91 mV). The patients were blinded as to the dose. The examiner, who was not informed of the dose, measured CMAPs immediately before starting methylcobalamin (day 1), at the end of 2 weeks of administration (day 14) and at 4 weeks after the start (day 28).

patients with ALS [3] = assay: Averaged CMAP amplitudes before and after treatment in ALS patients, 0.5 mg/day i.v., 15 mg/day i.v. and 25 mg/day i.m. groups; type: in vivo, human
Protocol: as §2
CMAP amplitudes were averaged in 10 patients with ALS treated with a low dose of methycobalamin (0.5 mg/day i.v. for 2 weeks). Those before the treatment and those 2 weeks after the completion of the treatment were compared.
CMAP amplitudes were averaged in 12 patients with ALS treated with a high dose of methylcobalamin (15 mg/day i.v. for 2 weeks). Those before the treatment, those at the end of the treatment and those 2 weeks after the completion of the treatment were compared.
CMAP amplitudes were averaged in 12 patients with ALS treated with an ultra-high dose of methylcobalamin (25 mg/day i.m. for 2 weeks). Those before the treatment, those at the end of the treatment and those 2 weeks after the completion of the treatment were compared.
The ratio of averaged CMAP amplitudes at 2 weeks after the completion of the treatment (after 4 wks) was compared with those before the treatment.

patients with ALS [4] = assay: Adverse reactions in ALS patients (clinical trial); type: in vivo, human
Protocol: as §1, §3

animals = conditions: cited from earlier work
patients with ALS [5] = assay: Clinical symptoms (gait, weakness) and duration of benefit in ALS patients; type: in vivo, human
Protocol: as §3

beagles [6] = conditions: 50.0 mg/kg/day, 6 months, cited from earlier work
beagles [7] = conditions: 90 days, cited from earlier work
rats = conditions: 0.5, 5.0 and 20.0 mg/kg/day i.p., 30 days; cited from earlier work
[8] = degraded into hydoxycobalamin; cited from earlier work
rabbit = conditions: 50 mg/kg/day, organogenesis; cited from earlier work
rat [9] = conditions: 20 mg/kg/day i.p. (organogenesis) or 50 mg/kg i.v. (pre-gestation to postnatal); cited from earlier work
[10] = intramuscular versus intravenous route; cited from earlier work
mouse = conditions: 20 mg/kg/day i.p., organogenesis; cited from earlier work
rat [11] = conditions: same doses as subacute, 6 months; cited from earlier work
patient with ALS = assay: Time course of averaged CMAP amplitude in a patient with ALS given 50 mg/day; type: in vivo, human; conditions: day 0 through 13, one patient
Protocol: as §2
These clinical benefits and improved CMAPs usually lasted for 1-3 months, then followed by deterioration. […] Serial changes of averaged CMAP amplitudes in low dose (0.5 mg/day i.m., n=12) group and high dose (25 mg/day i.m., n=12) group were examined. Methylcobalamin was given during day 0 through day 13. […] The time course of averaged CMAP amplitude changes in a patient with ALS who was given 50 mg/day of methylcobalamin during day 0 day through 13 was examined.

[12] = High Dose Group, 25 mg/day i.m., n=12

## O=P1(N(CCCl)CCCl)NCCCO1 (stereo not shown) [cyclophosphamide]
Patients with ALS [1]
  beneficial effects in ALS: beneficial effects

## COc1ccc2c(c1)[C@]13CCCC[C@@H]1[C@H](C2)N(C)CC3 [dextromethorphan]
Patients with ALS [1]
  potency in improving the clinical symptoms or prolonging life: not yet convincingly shown their potency

## C/C1=C2/[N-][C@H]([C@H](CC(N)=O)[C@@]2(C)CCC(=O)NC[C@@H](C)OP(=O)([O-])O[C@H]2[C@@H](O)[C@@H](n3cnc4cc(C)c(C)cc43)O[C@@H]2CO)[C@]2(C)N=C(/C(C)=C3N=C(/C=C4N=C1[C@@H](CCC(N)=O)C\4(C)C)[C@@H](CCC(N)=O)[C@]\3(C)CC(N)=O)[C@@H](CCC(N)=O)[C@]2(C)CC(N)=O.[CH3-].[Co+3] [methylcobalamin]
Patients with ALS [2]; 25 mg/day and 0.5 mg/day i.m., n=12 each
  ratio of averaged CMAP amplitude at day 14 or day 28 to that at day 0: only the high dose group showed a significant increase in the ratio at day 28
Patients with ALS [2]; 25 mg/day i.m., at 2 weeks (day 14)
  change in averaged CMAP amplitude: not at 2 weeks
Patients with ALS [2]; 25 mg/day versus 0.5 mg/day i.m.
  CMAP amplitude ratio between day zero and day 28, High Dose versus Low Dose Group: significantly higher ratio than Low Dose Group
Patients with ALS [2]; 15-500 mg/day, i.m., s.c. or i.v. for 14 days, low dose as control (summary statement)
  parameter of muscle power (CMAPs): significantly increases the parameter of muscle power
Patients with ALS [2]; low dose 0.5 mg/day i.m. for 14 days, at 2 or 4 weeks
  change in averaged CMAP amplitude: No significant changes in CMAP amplitude
Patients with ALS [2]; low dose 0.5 mg/day i.m. for 14 days, at 2 or 4 weeks, listed as Methylcobalamin
  change in averaged CMAP amplitude: no significant changes in CMAP amplitude
Patients with ALS [2]; ultra-high dose 25 mg/day i.m. for 14 days, at 4 weeks (day 28)
  change in averaged CMAP amplitude: significant increase at 4 weeks; also recorded: increase of averaged CMAP amplitudes at day 28
Patients with ALS [2]; ultra-high dose 25 mg/day i.m. for 14 days, at 4 weeks (day 28), listed as Methylcobalamin
  change in averaged CMAP amplitude: significant increase at 4 weeks
Patients with ALS [3]; 0.5 mg/day i.v. for 2 weeks, 10 patients, 2 weeks after completion vs before
  change in averaged CMAP amplitude: No significant changes were found
Patients with ALS [3]; 15 mg/day i.v. for 2 weeks, 12 patients, before, end, 2 weeks after completion
  change in averaged CMAP amplitude: tendency toward increase of CMAPs at 2 weeks after the completion of the treatment, no statistically significant differences were found
Patients with ALS [3]; 25 mg/day i.m. for 2 weeks, 12 patients, 2 weeks after completion
  change in averaged CMAP amplitude: statistically significant increase of CMAPs at 2 weeks after the completion of the treatment
Patients with ALS [3]; 25 mg/day i.m. versus 0.5 mg/day i.v., 2 weeks, FIG. 1
  ratio of averaged CMAP amplitudes 2 weeks after completion to before treatment, ultra-high versus low dose group: statistically significant difference
Patients with ALS [3]; 25 mg/day i.m. versus 0.5 mg/day i.v., unpaired t-test
  p value, ratio of averaged CMAP amplitudes between groups: < 0.05
Patients with ALS [4]; [12]
  adverse reactions: elevation of serum GOT and GPT: mild elevation of serum GOT and GPT in another
  adverse reactions: skin rash: skin rash in one patient
Patients with ALS [4]; High Dose Group, 25 mg/day i.m., both
  duration of adverse reactions (skin rash; GOT/GPT elevation): about a week
Patients with ALS [4]; clinical trial, 25 mg/day and 0.5 mg/day i.m. for 14 days
  major side effects: No major side effects were seen
animals; 50 mg/kg/day, animals
  major side effects: no major side effects have been observed
animals; 50 mg/kg/day, on rare occasions
  edema and redness of the skin: transient edema and redness of the skin
animals; disappears after discontinuing the administration
  red urine: Red urine may be found, but it soon disappears
Patients with ALS [5]; 15-500 mg/day, i.m., s.c. or i.v. for 14 days (summary statement)
  subjective weakness: improves the subjective weakness
Patients with ALS [5]; [12]
  improvement in gait and weakness: Two patients in High Dose Group noted an improvement in gait and weakness
Patients with ALS [5]; High Dose Group, 25 mg/day i.m., then followed by deterioration
  duration of clinical benefits and improved CMAPs: 1-3 months
Patients with ALS [5]; ultra-high dose, ALS patients
  improvement of clinical symptoms and objective clinical measure: improvement of both clinical symptoms and an objective clinical measure
Beagles [6]
  Kupffer cells in the liver: increased number of Kuppfer cells in the liver
  lysosomes, electron microscopy: increase in lysosomes
  mesangial cells in the renal glomeruli: lysosomal increase in the mesangeal cells in the renal glomeruli
Beagles [6]; only this dose
  kidney proximal tubules, light microscopy: increased eosinophilic granules in the proximal tubules in the kidney
Beagles [7]; 50.0 mg/kg/day i.v., a dog
  epididymis findings: No changes were noted in the epidydimis
  histological finding in the kidney: increased eosinophilic granules in the proximal tubules in the kidney
Beagles [7]; 0.5, 5.0 and 50.0 mg/kg/day i.v.
  subacute toxicity findings: normal findings
rats
  general conditions, body weight, blood and urine chemistry, organ weights and histological findings: no significant changes in the general conditions, body weight, blood and urine chemistry, organ weights and histological findings
[8]
  light sensitivity: light-sensitive, and is easily degraded into hydoxycobalamin
rabbit
  changes in the embryo, the fetus or the neonate: no significant changes in the embryo, the fetus or the neonate
Rat [9]
  changes in the embryo, the fetus or the neonate: no significant changes in the embryo, the fetus or the neonate
[10]
  half life in the blood level: longer half life in the blood level
mouse
  changes in the embryo, the fetus or the neonate: no significant changes in the embryo, the fetus or the neonate
Rat [11]
  chronic toxicity findings: No significant changes were found
Patient with ALS
  time course of averaged CMAP amplitude: abrupt increase of the amplitude during and after the treatment

## Nc1nc2ccc(OC(F)(F)F)cc2s1 [riluzole]
Patients with ALS [1]; a subgroup of ALS
  prolongation of life without tracheostomy: 1-3 months

## IGF-1: insulin-like growth factor-1
Patients with ALS [1]
  beneficial effects in ALS: beneficial effects

## superoxide dismutase
Patients with ALS [1]
  potency in improving the clinical symptoms or prolonging life: not yet convincingly shown their potency

## vitamin E
Patients with ALS [1]
  potency in improving the clinical symptoms or prolonging life: not yet convincingly shown their potency

B1: ciliary neurotrophic factor: ciliary neurotrophic factor (protein, UniProt P26441 1-200, looked up)
Ciliary neurotrophic factor: MAFTEHSPLTPHRRDLCSRSIWLARKIRSDLTALTESYVKHQGLNKNINLDSADGMPVASTDQWSELTEAERLQENLQAYRTFHVLLARLLEDQQVHFTPTEGDFHQAIHTLLLQVAAFAYQIEELMILLEYKIPRNEADGMPINVGDGGLFEKKLWGLKVLQELSQWTVRSIHDLRFISSHQTGIPARGSHYIANNKKM
Patients with ALS [1]
  potency in improving the clinical symptoms or prolonging life: not yet convincingly shown their potency

Reference: US5964224A, “Method for treating amyotrophic lateral sclerosis and a therapeutic agent therefor” (priority 1997, dated 1999)
